Assay results from patent publication US12181473B2 (priority 2017, dated 2024).

Tested on: fumonisin B1 monoclonal antibody secreted from the hybridoma cell line Fm7A11
Type: binding, BALB/c mice

| SMILES | Cross rates of response [%] | sensitivity (IC50, concentration of competitive antigen at 50% suppression ratio) [ng/mL] |
| --- | --- | --- |
| CCCC[C@@H](C)[C@@H](OC(=O)C[C@@H](CC(=O)O)C(=O)O)[C@H](C[C@@H](C)CCCCCC[C@@H](O)C[C@H](O)[C@H](C)N)OC(=O)C[C@@H](CC(=O)O)C(=O)O [fumonisin B2] | 4.3 |  |
| CCCC[C@@H](C)[C@@H](OC(=O)C[C@@H](CC(=O)O)C(=O)O)[C@H](C[C@@H](C)C[C@H](O)CCCCCC[C@H](O)[C@H](C)N)OC(=O)C[C@@H](CC(=O)O)C(=O)O [fumonisin B3] | 12.8 |  |
| CCCC[C@@H](C)[C@@H](OC(=O)C[C@@H](CC(=O)O)C(=O)O)[C@H](C[C@@H](C)C[C@H](O)CCCC[C@@H](O)C[C@H](O)[C@H](C)N)OC(=O)C[C@@H](CC(=O)O)C(=O)O [fumonisin B1] |  | 0.32 |
